{"source": "paper PMC10819888", "about": "“Benzimidazole-Based Derivatives as Apoptotic Antiproliferative Agents: Design, Synthesis, Docking, and Mechanistic Studies” (Molecules, 2024)", "key": {"NCI-H23": {"tested_on": "NCI-H23", "experiment": "NCI-60 five-dose assay", "format": "cell-based, human", "details": "NCI-H23 (Non-Small Cell Lung Cancer), 48 h"}, "EGFR": {"molecular_target": "EGFR (Homo sapiens, UniProt P00533)", "sequence (P00533 669-1210)": "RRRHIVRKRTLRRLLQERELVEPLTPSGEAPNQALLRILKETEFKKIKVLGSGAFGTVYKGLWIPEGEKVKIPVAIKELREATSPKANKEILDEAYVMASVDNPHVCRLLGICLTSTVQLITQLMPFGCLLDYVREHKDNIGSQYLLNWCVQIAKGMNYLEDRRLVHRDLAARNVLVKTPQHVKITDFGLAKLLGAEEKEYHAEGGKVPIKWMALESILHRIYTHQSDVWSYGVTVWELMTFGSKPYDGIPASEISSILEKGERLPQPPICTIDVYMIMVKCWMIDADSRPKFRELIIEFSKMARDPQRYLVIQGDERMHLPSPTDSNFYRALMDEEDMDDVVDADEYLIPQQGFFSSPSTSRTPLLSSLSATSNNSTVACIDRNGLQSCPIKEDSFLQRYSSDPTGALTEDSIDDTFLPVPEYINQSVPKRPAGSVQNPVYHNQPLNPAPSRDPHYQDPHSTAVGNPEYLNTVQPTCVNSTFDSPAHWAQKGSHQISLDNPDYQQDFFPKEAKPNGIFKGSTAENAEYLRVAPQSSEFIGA", "experiment": "EGFR inhibitory assay"}, "NCI-H460": {"tested_on": "NCI-H460", "experiment": "NCI-60 five-dose assay", "format": "cell-based, human", "details": "NCI-H460 (Non-Small Cell Lung Cancer), 48 h"}, "TK-10": {"tested_on": "TK-10", "experiment": "NCI-60 five-dose assay", "format": "cell-based, human", "details": "TK-10 (Renal Cancer), 48 h"}, "HCC-2998": {"tested_on": "HCC-2998", "experiment": "NCI-60 five-dose assay", "format": "cell-based, human", "details": "HCC-2998 (Colon Cancer), 48 h"}, "HOP-92": {"tested_on": "HOP-92", "experiment": "NCI-60 five-dose assay", "format": "cell-based, human", "details": "HOP-92 (Non-Small Cell Lung Cancer), 48 h"}, "SW-620": {"tested_on": "SW-620", "experiment": "NCI-60 five-dose assay", "format": "cell-based, human", "details": "SW-620 (Colon Cancer), 48 h"}, "SN12C": {"tested_on": "SN12C", "experiment": "NCI-60 five-dose assay", "format": "cell-based, human", "details": "SN12C (Renal Cancer), 48 h"}, "SNB-75": {"tested_on": "SNB-75", "experiment": "NCI-60 five-dose assay", "format": "cell-based, human", "details": "SNB-75 (CNS Cancer), 48 h"}, "HS 578T": {"tested_on": "HS 578T", "experiment": "NCI-60 five-dose assay", "format": "cell-based, human", "details": "HS 578T (Breast Cancer), 48 h"}, "SK-MEL-2": {"tested_on": "SK-MEL-2", "experiment": "NCI-60 five-dose assay", "format": "cell-based, human", "details": "SK-MEL-2 (Melanoma), 48 h"}, "NCI/ADR-RES": {"tested_on": "NCI/ADR-RES", "experiment": "NCI-60 five-dose assay", "format": "cell-based, human", "details": "NCI/ADR-RES (Ovarian Cancer), 48 h"}, "Melanoma subpanel": {"tested_on": "Melanoma subpanel", "experiment": "NCI-60 five-dose assay, subpanel", "format": "cell-based, human"}, "SF-268": {"tested_on": "SF-268", "experiment": "NCI-60 five-dose assay", "format": "cell-based, human", "details": "SF-268 (CNS Cancer), 48 h"}, "HL-60(TB)": {"tested_on": "HL-60(TB)", "experiment": "NCI-60 five-dose assay", "format": "cell-based, human", "details": "HL-60(TB) (Leukemia), 48 h"}, "SK-MEL-5": {"tested_on": "SK-MEL-5", "experiment": "NCI-60 five-dose assay", "format": "cell-based, human", "details": "SK-MEL-5 (Melanoma), 48 h"}, "RPMI-8226": {"tested_on": "RPMI-8226", "experiment": "NCI-60 five-dose assay", "format": "cell-based, human", "details": "RPMI-8226 (Leukemia), 48 h"}, "SK-MEL-28": {"tested_on": "SK-MEL-28", "experiment": "NCI-60 five-dose assay", "format": "cell-based, human", "details": "SK-MEL-28 (Melanoma), 48 h"}, "HCT-15": {"tested_on": "HCT-15", "experiment": "NCI-60 five-dose assay", "format": "cell-based, human", "details": "HCT-15 (Colon Cancer), 48 h"}, "K-562": {"tested_on": "K-562", "experiment": "NCI-60 five-dose assay", "format": "cell-based, human", "details": "K-562 (Leukemia), 48 h"}, "OVCAR-5": {"tested_on": "OVCAR-5", "experiment": "NCI-60 five-dose assay", "format": "cell-based, human", "details": "OVCAR-5 (Ovarian Cancer), 48 h"}, "MDA-MB-435": {"tested_on": "MDA-MB-435", "experiment": "NCI-60 five-dose assay", "format": "cell-based, human", "details": "MDA-MB-435 (Melanoma), 48 h"}, "UO-31": {"tested_on": "UO-31", "experiment": "NCI-60 five-dose assay", "format": "cell-based, human", "details": "UO-31 (Renal Cancer), 48 h"}, "SF-295": {"tested_on": "SF-295", "experiment": "NCI-60 five-dose assay", "format": "cell-based, human", "details": "SF-295 (CNS Cancer), 48 h"}, "PC-3": {"tested_on": "PC-3", "experiment": "NCI-60 five-dose assay", "format": "cell-based, human", "details": "PC-3 (Prostate Cancer), 48 h"}, "[1]": {"details": "Homo sapiens, read-out: GI50 Conc. per Cell Line"}, "[2]": {"details": "Homo sapiens, read-out: LC50 (the source's name)"}}, "data": [{"smiles": "O=C(NN=Cc1ccc(Cl)cc1)c1ccc2[nH]c(-c3ccc(Cl)cc3)nc2c1", "note": "[Compound 4e, N′-(4-Chlorobenzylidene)-2-(4-chlorophenyl)-1H-benzimidazole-5-carbohydrazide]", "values": [{"measurement": "GI50", "setting": "NCI-H23; [1]", "value": 1.93, "unit": "µM"}, {"measurement": "CC50", "setting": "NCI-H23; [2]", "value": 10.8, "unit": "µM"}, {"measurement": "TGI", "setting": "NCI-H23", "value": 4.43, "unit": "µM"}, {"measurement": "IC50", "setting": "EGFR", "value": "0.09 ± 0.01", "unit": "µM"}, {"measurement": "LC50", "setting": "NCI-H460; Homo sapiens", "value": 6.3, "unit": "µM"}, {"measurement": "GI50", "setting": "NCI-H460; [1]", "value": 1.56, "unit": "µM"}, {"measurement": "TGI", "setting": "NCI-H460", "value": 3.13, "unit": "µM"}, {"measurement": "GI50", "setting": "TK-10; [1]", "value": 2.06, "unit": "µM"}, {"measurement": "CC50", "setting": "TK-10; [2]", "value": 8.98, "unit": "µM"}, {"measurement": "TGI", "setting": "TK-10", "value": 4.30, "unit": "µM"}, {"measurement": "TGI", "setting": "HCC-2998", "value": 3.44, "unit": "µM"}, {"measurement": "GI50", "setting": "HCC-2998; [1]", "value": 1.82, "unit": "µM"}, {"measurement": "CC50", "setting": "HCC-2998; [2]", "value": 6.5, "unit": "µM"}, {"measurement": "TGI", "setting": "HOP-92", "value": 3.53, "unit": "µM"}, {"measurement": "LC50 (50% lethal concentration)", "setting": "HOP-92; Homo sapiens", "value": 7.47, "unit": "µM"}, {"measurement": "GI50", "setting": "HOP-92; [1]", "value": 1.67, "unit": "µM"}, {"measurement": "LC50", "setting": "SW-620; Homo sapiens", "value": 7.43, "unit": "µM"}, {"measurement": "GI50", "setting": "SW-620; [1]", "value": 1.83, "unit": "µM"}, {"measurement": "TGI", "setting": "SW-620", "value": 3.69, "unit": "µM"}, {"measurement": "GI50", "setting": "SN12C; [1]", "value": 1.96, "unit": "µM"}, {"measurement": "CC50", "setting": "SN12C; [2]", "value": 9.26, "unit": "µM"}, {"measurement": "TGI", "setting": "SN12C", "value": 4.26, "unit": "µM"}, {"measurement": "GI50", "setting": "SNB-75; [1]", "value": 1.59, "unit": "µM"}, {"measurement": "CC50", "setting": "SNB-75; [2]", "value": 8.22, "unit": "µM"}, {"measurement": "TGI", "setting": "SNB-75", "value": 3.62, "unit": "µM"}, {"measurement": "TGI", "setting": "HS 578T", "value": 5.27, "unit": "µM"}, {"measurement": "GI50", "setting": "HS 578T; [1]", "value": 2.28, "unit": "µM"}, {"measurement": "CC50", "setting": "HS 578T; [2]", "value": 63.2, "unit": "µM"}, {"measurement": "LC50", "setting": "SK-MEL-2; Homo sapiens", "value": 11.4, "unit": "µM"}, {"measurement": "GI50", "setting": "SK-MEL-2; [1]", "value": 2.09, "unit": "µM"}, {"measurement": "TGI", "setting": "SK-MEL-2", "value": 4.64, "unit": "µM"}, {"measurement": "GI50", "setting": "NCI/ADR-RES; [1]", "value": 1.83, "unit": "µM"}, {"measurement": "CC50", "setting": "NCI/ADR-RES; [2]", "value": 12.7, "unit": "µM"}, {"measurement": "TGI", "setting": "NCI/ADR-RES", "value": 4.43, "unit": "µM"}, {"measurement": "GI50", "setting": "Melanoma subpanel; Homo sapiens, Melanoma, average sensitivity of all subpanel cell lines, read-out: GI50 Subpanel MID b", "value": 1.77, "unit": "µM"}, {"measurement": "GI50 Selectivity Ratio (MID a/MID b)", "setting": "Melanoma subpanel; Melanoma subpanel", "value": 1.01}, {"measurement": "GI50", "setting": "SF-268; [1]", "value": 2.08, "unit": "µM"}, {"measurement": "CC50", "setting": "SF-268; [2]", "value": 9.09, "unit": "µM"}, {"measurement": "TGI", "setting": "SF-268", "value": 4.35, "unit": "µM"}, {"measurement": "TGI", "setting": "HL-60(TB)", "value": 6.53, "unit": "µM"}, {"measurement": "GI50", "setting": "HL-60(TB); [1]", "value": 1.85, "unit": "µM"}, {"measurement": "CC50", "setting": "HL-60(TB); [2]", "value": 54.8, "unit": "µM"}, {"measurement": "GI50", "setting": "SK-MEL-5; [1]", "value": 1.81, "unit": "µM"}, {"measurement": "CC50", "setting": "SK-MEL-5; [2]", "value": 6.33, "unit": "µM"}, {"measurement": "TGI", "setting": "SK-MEL-5", "value": 3.39, "unit": "µM"}, {"measurement": "GI50", "setting": "RPMI-8226; [1]", "value": 1.16, "unit": "µM"}, {"measurement": "CC50", "setting": "RPMI-8226; [2]", "value": 16.5, "unit": "µM"}, {"measurement": "TGI", "setting": "RPMI-8226", "value": 3.52, "unit": "µM"}, {"measurement": "GI50", "setting": "SK-MEL-28; [1]", "value": 1.58, "unit": "µM"}, {"measurement": "CC50", "setting": "SK-MEL-28; [2]", "value": 5.86, "unit": "µM"}, {"measurement": "TGI", "setting": "SK-MEL-28", "value": 3.04, "unit": "µM"}, {"measurement": "TGI", "setting": "HCT-15", "value": 3.03, "unit": "µM"}, {"measurement": "GI50", "setting": "HCT-15; [1]", "value": 1.42, "unit": "µM"}, {"measurement": "CC50", "setting": "HCT-15; [2]", "value": 6.46, "unit": "µM"}, {"measurement": "GI50", "setting": "K-562; Homo sapiens, K562, read-out: GI50 Conc. per Cell Line", "value": 0.969, "unit": "µM"}, {"measurement": "CC50", "setting": "K-562; Homo sapiens, K562, read-out: LC50 (the source's name)", "value": 12.3, "unit": "µM"}, {"measurement": "TGI", "setting": "K-562", "value": 3.23, "unit": "µM"}, {"measurement": "GI50", "setting": "OVCAR-5; [1]", "value": 1.85, "unit": "µM"}, {"measurement": "CC50", "setting": "OVCAR-5; [2]", "value": 8.52, "unit": "µM"}, {"measurement": "TGI", "setting": "OVCAR-5", "value": 3.97, "unit": "µM"}, {"measurement": "GI50", "setting": "MDA-MB-435; [1]", "value": 1.73, "unit": "µM"}, {"measurement": "CC50", "setting": "MDA-MB-435; [2]", "value": 6.49, "unit": "µM"}, {"measurement": "TGI", "setting": "MDA-MB-435", "value": 3.35, "unit": "µM"}, {"measurement": "GI50", "setting": "UO-31; [1]", "value": 1.57, "unit": "µM"}, {"measurement": "CC50", "setting": "UO-31; [2]", "value": 5.67, "unit": "µM"}, {"measurement": "TGI", "setting": "UO-31", "value": 2.99, "unit": "µM"}, {"measurement": "GI50", "setting": "SF-295; [1]", "value": 1.86, "unit": "µM"}, {"measurement": "CC50", "setting": "SF-295; [2]", "value": 6.56, "unit": "µM"}, {"measurement": "TGI", "setting": "SF-295", "value": 3.50, "unit": "µM"}, {"measurement": "LC50", "setting": "PC-3; Homo sapiens", "value": 7.05, "unit": "µM"}, {"measurement": "GI50", "setting": "PC-3; [1]", "value": 1.55, "unit": "µM"}, {"measurement": "TGI", "setting": "PC-3", "value": 3.30, "unit": "µM"}]}]}
